Values joined by “and” are separate entries in the source; they are usually repeats but may differ in a detail not shown here. Equal entries are not always repeated.
Target: Human Serum Albumin (Homo sapiens, UniProt P02768)
Assay: Binding (%) of the paramagnetic complex to human serum proteins/albumin by centrifugal ultrafiltration
Assay type: in vitro ADME
Design: purchased Nycomed Phama; host or cells: Seronorm Human, reconstituted (lyophilised) human serum
Description: Preferred albumin binding agents according to the invention include paramagnetic contrast agents having molecular weight lower than 5,000 Da, preferably lower that 3,000 Da and, more preferably, comprised from 800 to 3,000 Da, that further display an in-vivo non-covalent protein binding with the Human Serum Albumin (or HSA, or albumin, as herein used interchangeably) equal to or higher that 85%, preferably higher than 90% and, more preferably, higher than 95%, expressed in terms of % of the agent amount that is non-covalently bound to serum albumin, measured by centrifugal ultrafiltration (Centrifree®) from a 0.5 mM solution of the agent in Seronorm® incubated at 37° C., according to the procedure disclosed, for instance, in Invest.Radiol. 2006, 41: 279-291; Whitlam J B, Brown K F. Ultrafiltration in serum protein binding determinations. J.Pharm.Sci. 1981; 70:146-150, and in the Example 2 of the Experimental section.
The binding (%) has been determined by with the method of the centrifugal ultrafiltration as described in: Whitlam J B, Brown K F Ultrafiltration in serum protein binding determination. J. Pharm Sci. 1981; 70:146-150; Bowers W F, Fulton S, thompson J. Ultrafiltration vs equilibrium dialysis for determination of free fraction. […]
The albumin serum protein binding was analysed in a human serum solution (Seronorm Human, Nycomed Phama) where each complex was added at a concentration of Gd(III) ion of 0.5 mM. […] The percent of Gd(III)-complex bound (% B) was determined by equation: % B=[(Ct−Cf)/Ct]*100 where Ct is the total amount of Gd(III) in the incubated solution and Cf is the free Gd(III) complex found in the permeate solution. The average bound fraction was assessed from ultrafiltration experiments carried out in triplicate. […]
The above solution (0.300 mL) was added to 15 mL of reconstituted human serum. […] The protein free permeate solution (0.4 mL) was collected and Cf was measured by ICP-MS analysis. […]
From obtained Cf values the percent of bound Gd-complex was determined by application of the following equation % B=[(Ct−Cf)/Ct]*100 where Ct is 0.460 mM (S.D.: 0.015). […]

Chain of Human Serum Albumin (P02768 25-609): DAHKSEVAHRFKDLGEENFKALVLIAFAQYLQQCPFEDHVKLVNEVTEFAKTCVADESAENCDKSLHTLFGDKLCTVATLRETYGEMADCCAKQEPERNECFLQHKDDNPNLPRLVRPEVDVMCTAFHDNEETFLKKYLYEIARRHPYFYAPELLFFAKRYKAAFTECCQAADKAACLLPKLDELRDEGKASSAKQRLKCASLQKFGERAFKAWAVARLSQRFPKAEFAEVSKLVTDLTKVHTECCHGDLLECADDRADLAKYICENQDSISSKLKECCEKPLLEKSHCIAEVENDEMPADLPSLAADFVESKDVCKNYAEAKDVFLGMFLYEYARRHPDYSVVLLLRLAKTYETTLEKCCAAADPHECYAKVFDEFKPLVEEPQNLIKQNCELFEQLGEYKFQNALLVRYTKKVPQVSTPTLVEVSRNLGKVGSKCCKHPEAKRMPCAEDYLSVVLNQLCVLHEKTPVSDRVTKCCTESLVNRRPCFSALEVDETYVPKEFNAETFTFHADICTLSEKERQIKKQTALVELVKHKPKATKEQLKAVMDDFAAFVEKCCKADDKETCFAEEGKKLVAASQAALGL

Average Gd(III), Cf (free Gd(III) complex in the permeate solution) (0.5 mM Gd(III) complex in Seronorm human serum, 10 min at 37° C., 30 KDa MWCO ultrafiltration, per permeate A, B, C, trisodium salt): 0.016 mM and 0.011 mM and 0.012 mM | % B, Average (0.5 mM complex in human serum, 37° C., average of triplicate): 97.19% | % B (percent of Gd(III)-complex bound to serum proteins) (0.5 mM complex in human serum, 37° C., single ultrafiltrations, trisodium salt): 96.52% and 97.65% and 97.39%
Compound: C[C@H](CCC(=O)[O-])[C@H]1CC[C@H]2[C@@H]3CC[C@@H]4C[C@@H](NC(=O)CC[C@@H](C(=O)[O-])N(CCN(CC(=O)[O-])CC(=O)[O-])CCN(CC(=O)[O-])CC(=O)[O-])CC[C@]4(C)[C@H]3C[C@H](O)[C@]12C.[Gd+3].[Na+].[Na+].[Na+] [B22956/1, Gadocoletic acid trisodium salt]
